# Assay results as given in patent US9815851B2, “Pyrrolo carboxamides as modulators of orphan nuclear receptor RAR-related orphan receptor-gamma (RORγ, NR1F3) activity and for the treatment of chronic inflammatory and autoimmune diseases” (PHENEX PHARMACEUTICALS AG, priority 2011, dated 2017).
# Like-named read-outs stand apart in the source and are kept apart here.
# How the values were obtained:
# [1] = molecular target: T1, RORγ (UniProt P51449); assay: RORγ Gal4 Reporter Gene Assay in 293T cells (firefly and renilla luciferase); type: cell-based, human
# T1 sequence (P51449 1-518): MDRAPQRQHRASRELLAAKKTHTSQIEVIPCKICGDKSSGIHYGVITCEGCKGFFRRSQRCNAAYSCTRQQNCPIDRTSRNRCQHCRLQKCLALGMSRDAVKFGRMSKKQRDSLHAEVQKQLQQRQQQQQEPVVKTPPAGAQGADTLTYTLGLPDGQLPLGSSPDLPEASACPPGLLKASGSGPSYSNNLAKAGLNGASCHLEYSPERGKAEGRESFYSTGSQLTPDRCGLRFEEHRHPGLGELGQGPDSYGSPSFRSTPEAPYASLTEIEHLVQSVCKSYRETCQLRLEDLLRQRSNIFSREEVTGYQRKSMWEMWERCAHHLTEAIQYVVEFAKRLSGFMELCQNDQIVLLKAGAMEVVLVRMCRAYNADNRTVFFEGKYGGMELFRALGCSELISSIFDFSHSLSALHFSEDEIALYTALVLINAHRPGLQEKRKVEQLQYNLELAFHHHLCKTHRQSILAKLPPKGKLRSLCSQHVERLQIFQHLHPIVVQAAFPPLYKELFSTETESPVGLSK
# [2] = molecular target: T2, RORγ ligand binding domain (LBD) (Homo sapiens, UniProt P51449); assay: TR-FRET Activity Assay (ligand sensing, RORγ-LBD / coactivator peptide interaction, LANCE); type: biochemical
# T2 construct: made in house; host or cells: E. coli BL-21 (BL3), vector pDEST15
# T2 sequence (P51449 269-508 limits assumed): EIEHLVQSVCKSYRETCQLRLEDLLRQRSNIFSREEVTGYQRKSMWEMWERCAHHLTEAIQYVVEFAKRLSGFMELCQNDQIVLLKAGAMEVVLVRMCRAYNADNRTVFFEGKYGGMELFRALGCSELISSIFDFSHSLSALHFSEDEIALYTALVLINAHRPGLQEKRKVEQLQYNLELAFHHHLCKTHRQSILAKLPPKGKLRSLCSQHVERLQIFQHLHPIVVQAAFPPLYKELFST
# [3] = second value of the cell, Gal4 reporter gene assay in 293T cells, firefly luciferase
# [4] = third value of the cell, Gal4 reporter gene assay in 293T cells, renilla normalised luciferase
# [5] = first value of the cell FRET/FF/REN, TR-FRET activity assay, read-out: pIC50 (FRET) (converted)
Structure (SMILES),"pIC50 (FF) [1, 3]","pIC50 (REN) [1, 4]","IC50 [2, 5]",pIC50 (FF) [1],pIC50 (REN) [1],IC50 [2]
Cc1c(C(=O)NCCS(C)(=O)=O)cc(-c2ccc(S(=O)(=O)NC(C)(C)C)c(C(C)(C)C)c2)n1CC1CCCCC1 [1/130],6.8,6.8,794 nM,,,
Cc1c(C(=O)NC2CCOCC2)cc(-c2ccc(S(=O)(=O)NC(C)(C)C)c(C(C)(C)C)c2)n1CC1CCCCC1 [1/131],,,,6.3/7.8/7.8,6.3/7.8/7.8,501 nM
Cc1c(C(=O)NC2COC2)cc(-c2cc(C(F)(F)F)c3c(c2)C2(CCO3)CC2)n1CC1CCCCC1 [1/132],6.8,6.8,631 nM,,,
Cc1c(C(=O)NC2C[S+]([O-])C2)cc(-c2ccc(S(=O)(=O)NC(C)(C)C)c(C(C)(C)C)c2)n1CC1CCCCC1 (stereo not drawn) [2/1],,,,6.1/6.5/6.5,6.1/6.5/6.5,794 nM
Cc1c(C(=O)NC2C[S+]([O-])C2)cc(-c2cc(C(C)C)c3c(c2)C(C)(C)N(C(C)C)S3(=O)=O)n1CC1CCCCC1 (stereo not drawn) [2/3],6.5,6.7,1580 nM,,,
Cc1c(C(=O)NC2COC2)cc(-c2cc(C(=O)N(C)C(C)(C)C)nc(C(C)(C)C)c2)n1CC1CCCCC1 [6/1],6.7,6.7,2000 nM,,,
Cc1c(C(=O)NC2CCOCC2)cc(-c2ccc(C(=O)NCC(F)(F)F)c(C(C)(C)C)c2)n1CC1CCCCC1 [6/2],6.5,6.4,3160 nM,,,
Cc1c(C(=O)NC2CCOCC2)cc(-c2ccc(C(N)=O)c(C(C)(C)C)c2)n1CC1CCCCC1 [6/3],,,,5.1/5.9/5.7,5.1/5.9/5.7,7940 nM
CNC(=O)c1ccc(-c2cc(C(=O)NC3CCOCC3)c(C)n2CC2CCCCC2)cc1C(C)(C)C [6/4],< 4.7,< 4.7,10000 nM,,,
Cc1c(C(=O)NC2CCOCC2)cc(-c2ccc(C(=O)N(C)C)c(C(C)(C)C)c2)n1CC1CCCCC1 [6/5],6.5,6.4,2510 nM,,,
Cc1c(C(=O)NC2CCOCC2)cc(-c2ccc(C(=O)NC3CCCCC3)c(C(C)(C)C)c2)n1CC1CCCCC1 [6/6],,,,6.2/6.8/6.7,6.2/6.8/6.7,631 nM
Cc1c(C(=O)NC2CCOCC2)cc(-c2ccc(C(=O)NCC3CCCCC3)c(C(C)(C)C)c2)n1CC1CCCCC1 [6/7],,,,6.0/6.5/6.4,6.0/6.5/6.4,1000 nM
Cc1c(C(=O)NC2CCOCC2)cc(-c2ccc(C(=O)NC(C)(C)C)c(C(F)(F)F)c2)n1CC1CCCCC1 [6/8],,,,5.0/6.8/7.3,5.0/6.8/7.3,10000 nM
Cc1c(C(=O)NC2CCOCC2)cc(-c2ccc(C(=O)NC3CCCCC3)c(C(F)(F)F)c2)n1CC1CCCCC1 [6/9],6.4,6.2,10000 nM,,,
Cc1c(C(=O)NC2COC2)cc(-c2cc(C(C)(C)C)cc(C(C)(C)C)c2)n1S(=O)(=O)N1CCC(C)CC1 [7/1],6.7,6.8,316 nM,,,
Cc1c(C(=O)NC2COC2)cc(-c2cc(C(C)(C)C)cc(C(C)(C)C)c2)n1S(=O)(=O)N1CCCC(C)C1 (stereo not drawn) [7/2],,,,6.6/7.0/7.0,6.6/7.0/7.0,251 nM
Cc1c(C(=O)NC2COC2)cc(-c2cc(C(C)(C)C)cc(C(C)(C)C)c2)n1S(=O)(=O)N1CC(C)CC(C)C1 (stereo not drawn) [7/3],6.6,6.7,251 nM,,,
Cc1c(C(=O)NC2COC2)cc(-c2cc(C(C)(C)C)cc(C(C)(C)C)c2)n1S(=O)(=O)N1CCCCCC1 [7/4],7.1,7.1,200 nM,,,
Cc1c(C(=O)NC2COC2)cc(-c2cc(C(C)(C)C)cc(C(C)(C)C)c2)n1S(=O)(=O)N(C)C1CCCCC1 [7/5],,,,6.5/6.3/6.4,6.5/6.3/6.4,316 nM
Cc1c(C(=O)NC2COC2)cc(-c2cc(C(C)(C)C)cc(C(C)(C)C)c2)n1S(=O)(=O)N1CCC2(CCCC2)C1 [7/6],6.6,6.5,398 nM,,,
Cc1c(C(=O)NC2COC2)cc(-c2cn(S(=O)(=O)N3CCCCC3)c3ccccc23)n1CC1CCCCC1 [9/1],7.5,7.5,501 nM,,,
CCC(C)(C)NS(=O)(=O)c1ccc(-c2cc(C(=O)NC3COC3)c(C)n2CC2CCCCC2)cc1C(C)(C)C [9/7],7.5,7.5,501 nM,,,
CCN(C(C)(C)C)S(=O)(=O)c1ccc(-c2cc(C(=O)NCC(C)(C)O)c(C)n2CC2CCCCC2)cc1C(C)(C)C [9/10],,,,6.5/7.7/7.2,6.5/7.7/7.2,316 nM
Cc1c(C(=O)NC2COC2)cc(-c2cc(C(C)(C)C)nc(C(F)(F)F)c2)n1CC1CCCCC1 [9/15],,,,6.5/6.5/6.5,6.5/6.5/6.5,316 nM
Cc1c(C(=O)NCC(C)(C)C(=O)NCCO)cc(-c2cc(C(C)(C)C)c3c(c2)C2(CCO3)CC2)n1CC1CCCCC1 [11/5],,,,6.5/7.3/7.4,6.5/7.3/7.4,316 nM

# The next lines start with results.
"pIC50 (FF) [1, 3]","pIC50 (REN) [1, 4]","IC50 [2, 5]",Structure (SMILES),pIC50 (FF) [1],pIC50 (REN) [1],IC50 [2]
6.5,6.6,398 nM,Cc1c(C(=O)NCC(C)(C)O)cc(-c2cc(C(C)(C)C)cc(C(C)(C)C)c2)n1S(=O)(=O)N1CCCCC1 [7/7],,,
6.0,6.2,501 nM,Cc1c(C(N)=O)cc(-c2cc(C(C)(C)C)cc(C(C)(C)C)c2)n1S(=O)(=O)N1CCCCC1 [7/8],,,
7.4,7.5,631 nM,Cc1c(C(=O)NCC(C)(C)O)cc(-c2cn(S(=O)(=O)N3CCCCC3)c3ccccc23)n1CC1CCCCC1 [9/2],,,
7.1,7.1,316 nM,Cc1c(C(=O)NCC(C)(C)O)cc(-c2cc(C(C)(C)C)cc(S(=O)(=O)N(C)C(C)(C)C)c2)n1CC1CCCCC1 [9/3],,,
7.1,7.2,631 nM,Cc1c(C(=O)NC2COC2)cc(-c2ccc(S(=O)(=O)NC(C)(C)C)c(C(C)(C)C)c2)n1CC1CCCCC1 [9/4],,,
7.2,7.2,316 nM,Cc1c(C(=O)NC2COC2)cc(-c2ccc(S(=O)(=O)N(C)C(C)(C)C)c(C(C)(C)C)c2)n1CC1CCCCC1 [9/5],,,
7.7,7.8,251 nM,CCN(C(C)(C)C)S(=O)(=O)c1ccc(-c2cc(C(=O)NC3COC3)c(C)n2CC2CCCCC2)cc1C(C)(C)C [9/6],,,
7.0,7.1,631 nM,Cc1c(C(=O)NCC(C)(C)O)cc(-c2ccc(S(=O)(=O)NC(C)(C)C)c(C(C)(C)C)c2)n1CC1CCCCC1 [9/8],,,
7.2,7.3,501 nM,Cc1c(C(=O)NCC(C)(C)O)cc(-c2ccc(S(=O)(=O)N(C)C(C)(C)C)c(C(C)(C)C)c2)n1CC1CCCCC1 [9/9],,,
7.7,7.8,501 nM,CCC(C)(C)NS(=O)(=O)c1ccc(-c2cc(C(=O)NCC(C)(C)O)c(C)n2CC2CCCCC2)cc1C(C)(C)C [9/11],,,
6.3,6.5,1580 nM,Cc1c(C(=O)NC2COC2)cc(-c2cnc(NCC(C)(C)C)c(C(F)(F)F)c2)n1CC1CCCCC1 [9/12],,,
6.0,6.1,1000 nM,Cc1c(C(=O)NC2COC2)cc(-c2cnc(OCC(C)(C)C)c(C(F)(F)F)c2)n1CC1CCCCC1 [9/13],,,
6.3,6.2,7940 nM,Cc1c(C(=O)NC2COC2)cc(-c2cc(C(F)(F)F)c(=O)n(CC(C)(C)C)c2)n1CC1CCCCC1 [9/14],,,
6.9,6.9,251 nM,Cc1c(C(=O)NCC(C)(C)C(=O)N(C)C)cc(-c2cc(C(C)(C)C)c3c(c2)C2(CCO3)CC2)n1CC1CCCCC1 [11/2],,,
6.5,6.5,1000 nM,Cc1c(C(=O)NCC(C)(C)C(=O)NCCC(=O)O)cc(-c2cc(C(C)(C)C)c3c(c2)C2(CCO3)CC2)n1CC1CCCCC1 [11/3],,,
6.9,7.0,398 nM,Cc1c(C(=O)NCC(C)(C)C(=O)NCCS(C)(=O)=O)cc(-c2cc(C(C)(C)C)c3c(c2)C2(CCO3)CC2)n1CC1CCCCC1 [11/4],,,
8.0,8.2,251 nM,Cc1c(C(=O)NCC(C)(C)C(=O)NCCCO)cc(-c2cc(C(C)(C)C)c3c(c2)C2(CCO3)CC2)n1CC1CCCCC1 [11/6],,,
